Data from BindingDB's records for doi:10.1016/j.bmc.2008.10.052 (Universidade Federal De Santa Maria, 2008).

Target: Cruzipain (Trypanosoma cruzi, UniProt P25779)
Assay: Inhibition of Trypanosoma cruzi C-terminal truncated cruzain expressed in DH5alpha Escherichia coli by well-microplate spectrophotometry

Chain of Cruzipain (P25779 whole entry, the tested form may be a part): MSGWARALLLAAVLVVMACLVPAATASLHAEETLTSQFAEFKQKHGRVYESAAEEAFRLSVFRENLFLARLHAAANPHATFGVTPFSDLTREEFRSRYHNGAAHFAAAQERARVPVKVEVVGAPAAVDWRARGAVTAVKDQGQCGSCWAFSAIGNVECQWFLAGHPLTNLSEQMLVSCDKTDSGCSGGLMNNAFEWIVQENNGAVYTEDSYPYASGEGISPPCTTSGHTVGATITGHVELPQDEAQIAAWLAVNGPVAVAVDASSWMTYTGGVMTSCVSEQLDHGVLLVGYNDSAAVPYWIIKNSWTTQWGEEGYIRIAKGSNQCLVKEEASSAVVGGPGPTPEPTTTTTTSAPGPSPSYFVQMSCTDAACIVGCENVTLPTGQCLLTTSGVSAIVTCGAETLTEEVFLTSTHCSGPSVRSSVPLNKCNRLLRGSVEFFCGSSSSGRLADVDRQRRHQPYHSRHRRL

`COc1ccc(CN=Nc2nccc(C(F)(F)F)n2)cc1` [2-(N'-4-methoxy-benzylidenehydrazino)-4-trifluoromethyl-pyrimidine] and `Cc1ccc(CN=Nc2nccc(C(F)(F)F)n2)cc1` [2-(N'-4-Methyl-benzylidenehydrazino)-4-trifluoromethyl-pyrimidine] cannot be ordered by IC50: > 100 µM for the first, > 100 µM for the second.

`Cc1cc(C(F)(F)F)nc(N=NCc2ccccc2C)n1` [2-(N'-2-Methyl-benzylidenehydrazino)-6-methyl-4-trifluoromethyl-pyrimidine] and `COc1ccccc1CN=Nc1nc(C)cc(C(F)(F)F)n1` [2-(N'-2-Methoxy-benzylidenehydrazino)-6-methyl-4-trifluoromethyl-pyri-midine] cannot be ordered by IC50: > 100 µM for the first, > 150 µM for the second.

`FC(F)(F)c1ccnc(N=NCc2ccccc2)n1` [2-(N'-Benzylidenehydrazino)-4-trifluoromethylpyrimidine] and `Cc1ccccc1CN=Nc1nccc(C(F)(F)F)n1` [2-(N'-2-Methyl-benzylidenehydrazino)-4-trifluoromethyl-pyrimidine] cannot be ordered by IC50: > 150 µM for the first, > 100 µM for the second.

`O=[N+]([O-])c1ccc(CN=Nc2nccc(C(F)(F)F)n2)cc1` [2-(N'-4-Nitro-benzylidenehydrazino)-4-trifluoromethylpyrimidine] and `Cc1cc(C(F)(F)F)nc(N=NCc2ccc(Cl)cc2)n1` [2-(N'-4-chloro-benzylidenehydrazino)-6-methyl-4-trifluoro-methyl-pyrimidine] are the same in IC50: 100 µM for the first, 100 µM for the second.
